Structures can show the parent of a compound that is named as a salt.
Target: CK2A1 (CK2α/β) (Homo sapiens, UniProt P68400)
Experiment: CK2 kinase assay, CK2A1 (CK2α/β)
Format: biochemical
Settings: Table A; read-out: CK2A1 (CK2α/β) (IC50)
Experimental: For example, in vitro protein kinase assays may be conducted with a relevant purified protein kinase and an appropriate synthetic substrate to determine the inhibitory activity of the compounds. […] Reaction mixtures were incubated at 30° C. for 1 hour, and reaction products were captured by binding to phosphocellulose (P81) filter plates. Incorporation of radioactive phosphate into the peptide substrate was determined by liquid scintillation counting.
The inhibitory activity of the instant compounds may also be measured by recombinant CK2 holoenzyme kinase assays. The assays were performed in U-bottom 384-well plates. […] The reaction was initiated by the combination of bacterially expressed, CK2 α/β or CK2 holoenzyme with substrates and test compounds. The reaction was incubated at room temperature for 60 minutes and terminated by adding 30 μl of 35 mM EDTA to each sample. The reaction mixture was analyzed on the Caliper LABCHIP® 3000 (Caliper, Hopkinton, Mass.) by electrophoretic separation of the fluorescent substrate and phosphorylated product. […] Compounds were dissolved at 10 mM in dimethylsulfoxide (DMSO) and evaluated at eleven concentrations. IC50 values were derived by non-linear regression analysis.

CK2A1 (CK2α/β), sequence (P68400 whole entry, species assumed): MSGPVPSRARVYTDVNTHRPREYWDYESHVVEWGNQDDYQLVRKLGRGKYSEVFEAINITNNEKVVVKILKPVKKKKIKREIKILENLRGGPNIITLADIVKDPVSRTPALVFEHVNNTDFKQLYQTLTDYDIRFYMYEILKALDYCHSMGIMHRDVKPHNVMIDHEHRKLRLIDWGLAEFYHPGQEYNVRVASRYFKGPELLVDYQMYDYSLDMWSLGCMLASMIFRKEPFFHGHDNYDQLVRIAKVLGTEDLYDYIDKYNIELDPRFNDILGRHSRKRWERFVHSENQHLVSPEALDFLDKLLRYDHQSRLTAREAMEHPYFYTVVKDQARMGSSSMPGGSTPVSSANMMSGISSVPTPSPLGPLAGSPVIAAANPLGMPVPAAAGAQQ
CK2A1 (CK2α/β), sequence (P67870 whole entry partner, species assumed): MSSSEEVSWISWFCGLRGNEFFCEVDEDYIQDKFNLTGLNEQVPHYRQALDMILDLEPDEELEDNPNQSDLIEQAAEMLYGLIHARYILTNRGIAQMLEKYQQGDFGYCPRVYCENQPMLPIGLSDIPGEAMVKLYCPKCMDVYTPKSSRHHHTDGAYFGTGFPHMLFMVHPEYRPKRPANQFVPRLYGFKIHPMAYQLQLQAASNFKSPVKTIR

SMILES: CCNc1nc(Nc2cc(C#N)cc(N3CC[C@@H](NC(=O)OC)[C@H](OC(=O)CCCCN)C3)c2Cl)nn2c(C#N)cnc12 [Example 816, (3R,4R)-1-(2-chloro-5-cyano-3-((7-cyano-4-(ethylamino)imidazo[2,1-f][1,2,4]triazin-2-yl)amino)phenyl)-4-((methoxycarbonyl)amino)piperidin-3-yl 5-aminopentanoate hydrochloride]
- IC50: 5.2 nM

SMILES: CC(C)(C)[C@@H](N)C(=O)N1CC(N2CCN(c3cc(C#N)cc(Nc4nc(NC5CC5)c5ncc(C#N)n5n4)c3Cl)CC2)C1 [Example 502, 2-{[3-(4-{1-[(2R)-2-amino-3,3-dimethylbutanoyl]azetidin-3-yl}piperazin-1-yl)-2-chloro-5-cyanophenyl]amino}-4-(cyclopropylamino)imidazo[2,1-f][1,2,4]triazine-7-carbonitrile]
- IC50: 3.27 nM

SMILES: N#Cc1cc(Nc2nc(NC3CC3)c3ncc(C#N)n3n2)c(Cl)c(N2CCC(NC3CS(=O)(=O)C3)CC2)c1 [Example 129, 2-((2-chloro-5-cyano-3-(4-((1,1-dioxido-3-thietanyl)amino)-1-piperidinyl)phenyl)amino)-4-(cyclopropylamino)imidazo [2,1-f][1,2,4]triazine-7-carbonitrile]
- IC50: 5.13 nM

SMILES: N#Cc1cc(Nc2nc(NC3CC3)c3ncc(C#N)n3n2)c(Cl)c(N2CCN(C3CN(C(=O)C(F)F)C3)CC2)c1 [Example 491, 2-[(2-chloro-5-cyano-3-{4-[1-(2,2-difluoroacetyl)azetidin-3-yl]piperazin-1-yl}phenyl)amino]-4-(cyclopropylamino)imidazo[2,1-f][1,2,4]triazine-7-carbonitrile]
- IC50: 1.33 nM

SMILES: CCNc1nc(Nc2cc(C#N)cc(C3CCN(CC(C)(C)O)CC3)c2Cl)nn2c(C#N)cnc12 [Example 353, 2-((2-chloro-5-cyano-3-(1-(2-hydroxy-2-methylpropyl)-4-piperidinyl)phenyl)amino)-4-(ethylamino)imidazo[2,1-f][1,2,4]triazine-7-carbonitrile]
- IC50: 0.87 nM

SMILES: N#Cc1cc(Nc2nc(NC3CC3)c3ncc(C#N)n3n2)c(Cl)c(N2CCN(C3CN(C(=O)[C@H](O)C(F)(F)F)C3)CC2)c1 [Example 510, 2-{[2-chloro-5-cyano-3-(4-{1-[(2S)-3,3,3-trifluoro-2-hydroxypropanoyl]azetidin-3-yl}piperazin-1-yl)phenyl]amino}-4-(cyclopropylamino)imidazo[2,1-f][1,2,4]triazine-7-carbonitrile]
- IC50: 4.24 nM

SMILES: N#Cc1cc(Nc2nc(NC3CC3)c3ncc(C#N)n3n2)c(Cl)c(N2CCN(C3CN(C(=O)CO)C3)CC2)c1 [Example 488, 2-[(2-chloro-5-cyano-3-{4-[1-(2-hydroxyacetyl)azetidin-3-yl]piperazin-1-yl}phenyl)amino]-4-(cyclopropylamino)imidazo[2,1-f][1,2,4]triazine-7-carbonitrile]
- IC50: 0.6 nM

SMILES: N#Cc1cc(Nc2nc(NC3CC3)c3ncc(C#N)n3n2)c(Cl)c(N2CCC(C3COC3)CC2)c1 [Example 525, 2-((2-chloro-5-cyano-3-(4-(oxetan-3-yl)piperidin-1-yl)phenyl)amino)-4-(cyclopropylamino)imidazo[2,1-f][1,2,4]triazine-7-carbonitrile]
- IC50: 3.2 nM

SMILES: N#Cc1cc(Nc2nc(NC3CC3)c3ncc(C#N)n3n2)c(Cl)c(C2CCN(C3CC4(COC4)C3)CC2)c1 [Example 222, 2-((2-chloro-5-cyano-3-(1-(2-oxaspiro[3.3]hept-6-yl)-4-piperidinyl)phenyl)amino)-4-(cyclopropylamino)imidazo[2,1-f][1,2,4]triazine-7-carbonitrile]
- IC50: 1.17 nM

SMILES: N#Cc1cc(Nc2nc(NC3CC3)c3ncc(C#N)n3n2)c(Cl)c(N2CC[C@@H](NC(=O)CN3CCOCC3)[C@H](O)C2)c1 (racemic) [Example 183, (+/−)-N-((3R,4R)-1-(2-chloro-5-cyano-3-((7-cyano-4-(cyclopropylamino)imidazo[2,1-f][1,2,4]triazin-2-yl)amino)phenyl)-3-hydroxypiperidin-4-yl)-2-morpholinoacetamide]
- IC50: 0.64 nM

SMILES: CCNc1nc(Nc2ccc3c(c2)c(C#N)cn3C2CCN([C@H]3COC[C@@H]3O)CC2)nn2c(C#N)cnc12 [Example 826, 2-((3-cyano-1-(1-((3S,4R)-4-hydroxytetrahydrofuran-3-yl)piperidin-4-yl)-1H-indol-5-yl)amino)-4-(ethylamino)imidazo[2,1-f][1,2,4]triazine-7-carbonitrile]
- IC50: 0.32 nM

SMILES: N#Cc1cc(Nc2nc(NC3CC3)c3ncc(C#N)n3n2)c(Cl)c(N2CCN(C(=O)C3CNCCO3)CC2)c1 (racemic) [Example 94, (+/−) 2-(2-chloro-5-cyano-3-(4-(morpholine-2-carbonyl)piperazin-1-yl)phenylamino)-4-(cyclopropylamino) imidazo[1,2-f][1,2,4] triazine-7-carbonitrile]
- IC50: 0.96 nM

SMILES: N#Cc1cc(Nc2nc(NC3CC3)c3ncc(C#N)n3n2)c(Cl)c(OC2CNCCOC2)c1 (racemic) [Example 440, (+/−)-2-((3-((1,4-oxazepan-6-yl)oxy)-2-chloro-5-cyanophenyl)amino)-4-(cyclopropylamino)imidazo[2,1-f][1,2,4]triazine-7-carbonitrile]
- IC50: 0.88 nM

SMILES: CCNc1nc(Nc2cc(C#N)cc(N3CC[C@@H](NC(=O)OC)[C@H](OC(=O)CCCN)C3)c2Cl)nn2c(C#N)cnc12 [Example 817, (3R,4R)-1-(2-chloro-5-cyano-3-((7-cyano-4-(ethylamino)imidazo[2,1-f][1,2,4]triazin-2-yl)amino)phenyl)-4-((methoxycarbonyl)amino)piperidin-3-yl 4-aminobutanonate hydrochloride]
- IC50: 5.05 nM

SMILES: CCNc1nc(Nc2cc(C#N)cc(N3CC[C@H]4NC(=O)O[C@@H]4C3)c2Cl)nn2c(C#N)cnc12 [Example 375, 2-((2-chloro-5-cyano-3-((3aR,7aR)-2-oxohexahydrooxazolo[5,4-c]pyridin-5(2H)-yl)phenyl)amino)-4-(ethylamino)imidazo[2,1-f][1,2,4]triazine-7-carbonitrile]
- IC50: 0.43 nM

SMILES: N#Cc1cc(Nc2nc(NC3CC3)c3ncc(C#N)n3n2)c(Cl)c(N2CCN(CC(=O)NS(=O)(=O)C3CC3)CC2)c1 [Example 599, 2-[4-(2-chloro-5-cyano-3-{[7-cyano-4-(cyclopropylamino)imidazo [2,1-f][1,2,4]triazin-2-yl]amino}phenyl)piperazin-1-yl]-N-(cyclopropanesulfonyl) acetamide]
- IC50: 0.4 nM

SMILES: N#Cc1cc(Nc2nc(NC3CC3)c3ncc(C#N)n3n2)c(Cl)c(N2CCN([C@H]3C[C@@H](C#N)C3)CC2)c1 [Example 106]
- IC50: 1.23 nM

SMILES: COC(=O)N[C@H]1CCN(c2cc(C(N)=O)cc(Nc3nc(NC4CC4)c4ncc(C#N)n4n3)c2Cl)C[C@@H]1O [Example 388, methyl ((3S,4S)-1-(5-carbamoyl-2-chloro-3-((7-cyano-4-(cyclopropylamino)imidazo[2,1-f][1,2,4]triazin-2-yl)amino)phenyl)-3-hydroxypiperidin-4-yl)carbamate]
- IC50: 5.13 nM

SMILES: CC(C)(C)[C@H](N)C(=O)N1CC(N2CCN(c3cc(C#N)cc(Nc4nc(NC5CC5)c5ncc(C#N)n5n4)c3Cl)CC2)C1 [Example 505, 2-{[3-(4-{1-[(2S)-2-amino-3,3-dimethylbutanoyl]azetidin-3-yl}piperazin-1-yl)-2-chloro-5-cyanophenyl]amino}-4-(cyclopropylamino)imidazo[2,1-f][1,2,4]triazine-7-carbonitrile]
- IC50: 5.42 nM
